Test results from PMC5609037, “Selective inhibition of PfA-M1, over PfA-M17, by an amino-benzosuberone derivative blocks malaria parasites development in vitro and in vivo” (Malaria Journal, 2017).

Legend:
[1] = target: T1, PfA-M17 (P. falciparum leucyl aminopeptidase) (Plasmodium falciparum, UniProt Q8IL11); test: Leu-pNA hydrolysis at […] nm, Ki by Dixon plots; assay type: biochemical
T1 construct: gene LAP; residues 84–605, N-terminal hexahistidine tag, recombinant from E. coli

[2] = target: T2, PfA-M1 (P. falciparum alanyl aminopeptidase, M1 family aminopeptidase) (Plasmodium falciparum, UniProt O96935); test: Ala-pNA hydrolysis at […] nm, Ki by Dixon plots; assay type: biochemical
T2 construct: gene M1AAP; residues 192–1085, N-terminal hexahistidine tag, recombinant from E. coli
T2 sequence (O96935 192-1085): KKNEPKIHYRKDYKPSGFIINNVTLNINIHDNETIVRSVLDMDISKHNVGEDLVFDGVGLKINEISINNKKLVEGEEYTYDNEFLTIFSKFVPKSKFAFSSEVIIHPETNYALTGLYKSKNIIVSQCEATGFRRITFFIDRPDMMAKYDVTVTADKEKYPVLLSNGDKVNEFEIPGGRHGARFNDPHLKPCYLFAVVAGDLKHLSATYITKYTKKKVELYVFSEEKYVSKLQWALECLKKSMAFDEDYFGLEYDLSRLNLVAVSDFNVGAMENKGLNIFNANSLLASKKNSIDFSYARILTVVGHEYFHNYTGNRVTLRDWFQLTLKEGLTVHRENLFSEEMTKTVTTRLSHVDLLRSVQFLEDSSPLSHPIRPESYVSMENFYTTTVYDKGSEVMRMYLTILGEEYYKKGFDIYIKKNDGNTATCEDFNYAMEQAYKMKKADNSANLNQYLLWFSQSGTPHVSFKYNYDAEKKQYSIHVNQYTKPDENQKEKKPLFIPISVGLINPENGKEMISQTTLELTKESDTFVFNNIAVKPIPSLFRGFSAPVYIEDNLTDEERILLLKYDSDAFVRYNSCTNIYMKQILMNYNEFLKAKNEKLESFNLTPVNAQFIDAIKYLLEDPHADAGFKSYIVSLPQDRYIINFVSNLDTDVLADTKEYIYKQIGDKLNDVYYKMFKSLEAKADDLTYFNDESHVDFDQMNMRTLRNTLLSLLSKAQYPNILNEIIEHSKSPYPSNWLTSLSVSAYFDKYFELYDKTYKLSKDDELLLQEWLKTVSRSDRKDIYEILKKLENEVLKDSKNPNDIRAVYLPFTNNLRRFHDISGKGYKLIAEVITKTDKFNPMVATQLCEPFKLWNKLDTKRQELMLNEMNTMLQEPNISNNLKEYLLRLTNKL

T1 sequence (Q8IL11 84-605): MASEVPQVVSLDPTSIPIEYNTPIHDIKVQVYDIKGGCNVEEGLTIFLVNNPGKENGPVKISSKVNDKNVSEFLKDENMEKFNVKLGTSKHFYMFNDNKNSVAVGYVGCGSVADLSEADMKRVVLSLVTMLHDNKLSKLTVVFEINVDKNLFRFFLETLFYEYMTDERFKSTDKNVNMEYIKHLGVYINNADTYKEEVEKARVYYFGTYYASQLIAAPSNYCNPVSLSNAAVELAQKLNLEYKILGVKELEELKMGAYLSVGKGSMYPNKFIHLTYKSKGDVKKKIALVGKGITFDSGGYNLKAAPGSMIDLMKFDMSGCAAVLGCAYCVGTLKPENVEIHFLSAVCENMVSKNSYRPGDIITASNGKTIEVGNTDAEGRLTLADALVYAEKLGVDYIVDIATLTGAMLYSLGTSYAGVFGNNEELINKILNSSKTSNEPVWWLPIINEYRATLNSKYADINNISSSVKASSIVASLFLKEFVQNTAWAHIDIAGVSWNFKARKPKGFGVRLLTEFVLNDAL

`CC(C)C[C@H](NC(=O)[C@@H](O)[C@H](N)Cc1ccccc1)C(=O)O` [bestatin] was tested, and the Ki [1] was 400 nM and the Ki [2] was 100 nM.
